Values of other authors as cited in patent publication US8759069B2, “Contaminant control in Zymomonas fermentation using hop acids” (priority 2012, dated 2014).

Assays:
[1] = system: bacterial contamination; conditions: batch Zymomonas mobilis fermentation for ethanol production
[2] = system: Zymomonas mobilis strain ZM4; conditions: antibiotic concentrations that are safe to use with yeast

Question: With `CC1(C)S[C@@H]2[C@H](NC(=O)Cc3ccccc3)C(=O)N2[C@H]1C(=O)O` [penicillin G] as the compound, how does the “control of bacterial contamination” value [1] read?
Answer: successfully used to control bacterial contamination

Question: What about the “effect on Zymomonas mobilis strain ZM4” value [2] of the same compound?
Answer: safe for use with Zymomonas

Question: Which “effect on Zymomonas mobilis strain ZM4” value [2] does the source give for `[H]/N=C(/N)N[C@H]1[C@H](O)[C@@H](O)[C@H](O[C@@H]2O[C@@H](C)[C@](O)(C=O)[C@H]2O[C@@H]2O[C@@H](CO)[C@H](O)[C@@H](O)[C@@H]2NC)[C@@H](N/C(N)=N\[H])[C@@H]1O` [streptomycin] here?
Answer: inhibitory to growth

Question: For polymixin, which “effect on Zymomonas mobilis strain ZM4” value [2] is on record?
Answer: inhibitory to growth
